# Assay results from US6306860A, “2,5-pyridinedicarboxylic acid derivatives” (Dong Wha Pharm. Inc. Co., Ltd., priority 1998, dated 2001).
# Structures can show the parent of a compound that is named as a salt.
# What was measured:
# HBV polymerase = target: T1, HBV polymerase (Hepatitis B virus genotype D subtype ayw, UniProt P03156); experiment: Inhibitory activities against HBV polymerase (reverse transcriptase activity) in vitro; format: biochemical; details: read-out: Inhibitory activity of HBV-RT (%); for inhibition at 0.01 µg/mL: 0.01 μg/ml; for inhibition at 0.1 µg/mL: 0.1 μg/ml; for inhibition at 1 µg/mL: 1 μg/ml
# T1 construct: made in house; host or cells: E. coli
# T1 sequence (P03156 whole entry): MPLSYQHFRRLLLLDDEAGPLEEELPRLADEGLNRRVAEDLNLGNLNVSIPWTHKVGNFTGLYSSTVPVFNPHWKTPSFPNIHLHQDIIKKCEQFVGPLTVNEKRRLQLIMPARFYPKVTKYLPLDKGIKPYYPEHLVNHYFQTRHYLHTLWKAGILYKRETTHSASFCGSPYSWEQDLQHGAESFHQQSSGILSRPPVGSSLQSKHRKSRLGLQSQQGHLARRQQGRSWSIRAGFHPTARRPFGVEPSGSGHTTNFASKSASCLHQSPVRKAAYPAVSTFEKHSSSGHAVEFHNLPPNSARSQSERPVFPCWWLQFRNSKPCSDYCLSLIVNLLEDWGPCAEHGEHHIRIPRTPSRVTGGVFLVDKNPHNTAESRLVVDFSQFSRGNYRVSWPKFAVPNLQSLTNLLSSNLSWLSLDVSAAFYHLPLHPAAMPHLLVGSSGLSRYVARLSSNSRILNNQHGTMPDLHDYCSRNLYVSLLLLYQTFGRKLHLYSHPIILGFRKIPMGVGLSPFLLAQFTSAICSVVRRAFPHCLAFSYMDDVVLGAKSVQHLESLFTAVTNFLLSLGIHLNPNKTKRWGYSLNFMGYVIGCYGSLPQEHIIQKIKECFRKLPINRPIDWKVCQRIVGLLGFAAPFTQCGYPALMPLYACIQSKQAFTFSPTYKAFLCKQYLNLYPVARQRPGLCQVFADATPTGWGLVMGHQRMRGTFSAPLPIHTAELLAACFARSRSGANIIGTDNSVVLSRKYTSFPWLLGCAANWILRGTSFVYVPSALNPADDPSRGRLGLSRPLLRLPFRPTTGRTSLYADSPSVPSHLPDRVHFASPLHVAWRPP
# Description: Experiment 1:Inhibitory Activities Against HBV Polymerase in vitro
# Recently, the inventors of the present invention have produced a recombinant HBV polymerase that is expressed from E.coli transformant, measured its enzyme activity and filed patent applications threrof [Korean Pat. Appl. Nos. 94-3918 and 96-33998].
# The inventors have also established a method of measuring the reverse transcriptase activity of HBV polymerase in vitro. The fundamental principle is the same as the ELISA method, and after reacting the substrate with biotin- and DIG-modified nucleotide, a method of recognizing the polymerized substrate as anti-DIG antibody with peroxidase was used.
# 20 μl of HBV polymerase, 20 μl of reaction mixture and 20 μl of test compound was mixed and reacted at 14° C.~30° C. for 18~24 hours. Then, the inhibitory effect of the test compound against reverse transcriptase activity in the HBV polymerase was examined, compared with the results of control tests without the test compound.
# [1] = target: T2, HIV reverse transcriptase (Human immunodeficiency virus type 1 group M subtype B, UniProt P04585); experiment: In vitro inhibition test against HIV reverse transcriptase; format: biochemical; details: read-out: Inhibitory activity of HIV-RT (%); for inhibition at 0.1 µg/mL: 0.1 μg/ml; for inhibition at 1 µg/mL: 1 μg/ml
# T2 construct: purchased Boehringer Mannheim
# Experimental: Experiment 2: The in vitro Inhibition Test Against HIV Reverse Transcriptase
# The inhibitory activity in vitro was measured using a non-radioactive reverse transcriptase assay Kit (Boehringer Mannheim).
# At first, 20 μl(40 ng) of HIV-RT was added to the wells, coated with streptavidin and with the addition of 20 μl reaction mixture containing template/primer hybrid poly(A)/oligo(dT)15 and DIG-(digoxigenin)-dUTP, biotin-dUTP and TTP, 20 μl of test compound was added and reacted at 37° C. for 1 hour. The control without test compound was used for the comparison of related activity. Since DNA containing nucleotide labeled with digoxigenin and biotine was prepared by the action of HIV-RT, it was combined with streptavidin coated at the bottom of the wells. After the reaction was completed, remaining impurities were removed by washing each well with 250 μl buffer solution (pH 7.0) for 30 seconds 5 times and with the addition of 200 μl anti-DIG-POD antibody, the mixture was reacted at 37° C. for 1 hour. For the removal of remaining impurities again, the reacting solution was washed with a buffer solution and with the addition of 200 μl ABTS™ each, a substrate of POD(peroxidase), the solution was reacted at room temperature for 30 minutes. The absorbance was read by ELISA reader at 405 nm for the assay of reverse transcriptase activity and its inhibition activity.
SMILES,inhibition at 0.1 µg/mL (HBV polymerase) [%],inhibition at 1 µg/mL (HBV polymerase) [%],inhibition at 0.01 µg/mL (HBV polymerase) [%],inhibition at 0.1 µg/mL [1] [%],inhibition at 1 µg/mL [1] [%]
"CC(C)Nc1cccnc1N1CCN(C(=O)c2ccc(C(=O)NC(CO)CO)cn2)CC1 [Exam. 13, 5-[N-[Bis(hydroxymethyl)methyl]carbamoyl]-2-[1-[3-(isopropylamino)-2-pyridyl]piperazin-4-yl-carbonyl]pyridine]",56,72,51,61,80
"CC(C)Nc1cccnc1N1CCN(C(=O)c2ccc(C(=O)N(C)CC3OCCO3)cn2)CC1 [Exam. 52, 5-[N-[(1,3-Dioxolan-2-yl)methyl]-N-methylcarbamoyl]-2-[1-[3-(isopropylamino)-2-pyridyl]piperazin-4-yl-carbonyl]pyridine]",60,76,39,50,62
"CC(C)Nc1cccnc1N1CCN(C(=O)c2ccc(C(=O)NCCO)cn2)CC1 [Exam. 1, 5-[N-(2-hydroxyethyl)carbamoyl]-2-[1-[3-(isopropylamino)-2-pyridyl]piperazin-4-yl-carbonyl]pyridine]",51,54,30,,
"COC(CNC(=O)c1ccc(C(=O)N2CCN(c3ncccc3NC(C)C)CC2)nc1)OC [Exam. 51, 5-[N-(2,2-dimethoxyethyl)carbamoyl]-2-[1-[3-(isopropylamino)-2-pyridyl]piperazin-4-yl-carbonyl]pyridine]",65,87,57,30,51
"CC(C)Nc1cccnc1N1CCN(C(=O)c2ccc(C(=O)NCCOCCO)cn2)CC1 [Exam. 48, 5-[N-[2-(2-hydroxyethoxy)ethyl]carbamoyl]-2-[1-[3-(isopropylamino)-2-pyridyl]piperazin-4-yl-carbonyl]pyridine]",66,79,52,41,52
"COCCCNC(=O)c1ccc(C(=O)N2CCN(c3ncccc3NC(C)C)CC2)nc1 [Exam. 45, 2-[1-[3-(isopropylamino)-2-pyridyl]piperazin-4-yl-carbonyl]-5-[N-(3-methoxypropyl)carbamoyl]pyridine]",53,63,28,47,68
"CCNc1cccnc1N1CCN(C(=O)c2ccc(C(=O)NCCN3CCOCC3)cn2)CC1 [Exam. 60, 2-[1-[3-(ethylamino)-2-pyridyl]piperazin-4-yl-carbonyl]-5-[N-[2-(morpholin4-yl)ethyl]carbamoyl]pyridine.HCl]",52,66,30,55,73
"COC(CN(C)C(=O)c1ccc(C(=O)N2CCN(c3ncccc3NC(C)C)CC2)nc1)OC [Exam. 50, 5-[N-(2,2-dimethoxyethyl)-N-methylcarbamoyl]-2-[1-[3-(isopropylamino)-2-pyridyl]piperazin-4-yl-carbonyl]pyridine.HCl]",51,60,15,40,55
"COCC(C)NC(=O)c1ccc(C(=O)N2CCN(c3ncccc3NC(C)C)CC2)nc1 (stereo not drawn) [Exam. 43, 2-[1-[3-(isopropylamino)-2-pyridyl]piperazin-4-yl-carbonyl]-5-[N-(2-methoxy-1-methylethyl)carbamoyl]pyridine]",61,68,50,44,56
"CC(C)Nc1cccnc1N1CCN(C(=O)c2ccc(C(=O)NC(C)(C)CO)cn2)CC1 [Exam. 6, 5-[N-(1,1-dimethyl-2-hydroxyethyl)carbamoyl]-2-[1-[3-(isopropylamino)-2-pyridyl]piperazin-4-yl-carbonyl]pyridine]",65,80,62,48,70
"CC(C)Nc1cccnc1N1CCN(C(=O)c2ccc(C(=O)NCCN(C)C)cn2)CC1 [Exam. 62, 5-[N-[2-(dimethylamino)ethyl]carbamoyl]-2-[1-[3-(isopropylamino)-2-pyridyl]piperazin-4-yl-carbonyl]pyridine.HCl]",58,69,47,63,79
CC(C)CNc1cccnc1N1CCN(C(=O)c2ccc(C(=O)NC3CC3)cn2)CC1 [Exam. 36],71,87,60,60,73
CC(C)Nc1cccnc1N1CCN(C(=O)c2ccc(C(=O)N(CCO)c3ccccc3)cn2)CC1 [Exam. 17],53,66,42,,
"Nc1cccnc1N1CCN(C(=O)c2ccc(C(=O)NCCO)cn2)CC1 [Exam. 20, 2-[1-(3-Amino-2-pyridyl)piperazine4-yl-carbonyl]-5-[N-(2-hydroxyethyl)carbamoyl]pyridine]",67,74,54,,

# The next lines start with results.
inhibition at 0.1 µg/mL (HBV polymerase) [%],inhibition at 1 µg/mL (HBV polymerase) [%],SMILES,inhibition at 0.01 µg/mL (HBV polymerase) [%],inhibition at 0.1 µg/mL [1] [%],inhibition at 1 µg/mL [1] [%]
62,70,"CC(C)(CO)NC(=O)c1ccc(C(=O)N2CCN(c3ncccc3N)CC2)nc1 [Exam. 21, 2-[1-(3-amino-2-pyridyl)piperazin-4-yl-carbonyl]-5-[N-(1,1-dimethyl-2-hydroxyethyl)carbamoyl]pyridine]",38,,
56,72,"CCNc1cccnc1N1CCN(C(=O)c2ccc(C(=O)NC(C)(C)CO)cn2)CC1 [Exam. 19, 5-[N-(1,1-dimethyl-2-hydroxyethyl)carbamoyl]-2-[1-[3-(ethylamino)-2-pyridyl]piperazin-4-yl-carbonyl]pyridine]",32,,
39,56,"CC(C)Nc1cccnc1N1CCN(C(=O)c2ccc(C(=O)N[C@@H](C)CO)cn2)CC1 [Exam. 4, 5-[N-[(1S)-2-hydroxy-1-methylethyl]carbamoyl]-2-[1-[3-(isopropylamino)-2-pyridyl]piperazin-4-yl-carbonyl]pyridine]",30,,
57,74,"CC(C)Nc1cccnc1N1CCN(C(=O)c2ccc(C(=O)N[C@H](C)CO)cn2)CC1 [Exam. 3, 5-[N-[(1R)-2-hydroxy-1-methylethyl]carbamoyl]-2-[1-[3-(isopropylamino)-2-pyridyl]piperazin-4-yl-carbonyl]pyridine]",41,,
46,71,CC(C)CNc1cccnc1N1CCN(C(=O)c2ccc(C(=O)Nc3ncccc3O)cn2)CC1 [Exam. 86],13,,
60,71,"CC(C)Nc1cccnc1N1CCN(C(=O)c2ccc(C(=O)NCCCO)cn2)CC1 [Exam. 2, 5-[N-(3-Hydroxypropyl)carbamoyl]-2-[1-[3-(isopropylamino)-2-pyridyl]piperazine-4-yl-carbonyl]pyridine]",49,,
64,70,"CC[C@H](CO)NC(=O)c1ccc(C(=O)N2CCN(c3ncccc3NC(C)C)CC2)nc1 [Exam. 7, 5-[N-[(1R)-1-ethyl-2-hydroxyethyl]carbamoyl]-2-[1-[3-(isopropylamino)-2-pyridyl]piperazin-4-yl-carbonyl]pyridine]",53,,
10,35,"CCN(CCO)C(=O)c1ccc(C(=O)N2CCN(c3ncccc3NC(C)C)CC2)nc1 [Exam. 14, 5-[N-ethyl-N-(2-hydroxyethyl)carbamoyl]-2-[1-[3-(isopropylamino)-2-pyridyl]piperazin-4-yl-carbonyl]pyridine]",,,
69,84,"CCNc1cccnc1N1CCN(C(=O)c2ccc(C(=O)NCCO)cn2)CC1 [Exam. 18, 2-[1-[3-(ethylamino)-2-pyridyl]piperazin-4-yl-carbonyl]-5-[N-(2-hydroxyethyl)carbamoyl]pyridine]",52,,
